# Assay results taken from US20240174727A1, “LONG-ACTING NATRIURETIC PEPTIDES AND USES THEREOF” (Eli Lilly and Company, priority 2022, published 2024).
# Read-outs that look alike come from different tables or passages of the source. Numbered stars: 1 amine (or outer) side, 2 acyl side, 3 side chain; on linkers, the order of the positions; unused ones are H or OH. Bridge positions count the residues as written; N and C are the ends. * marks the point of attachment. C20 diacid = O=C(O)CCCCCCCCCCCCCCCCCCC(=O)*; γGlu = O=C(O)[C@H](CCC(=O)[*:2])N[*:1]; CH2 = C([*:1])[*:2]
# Molecular target: T1, rat NPRA (Rattus norvegicus, UniProt P18910)
# T1 construct: Full-Length cDNA Cloning and Generation of Cell Lines Overexpressing Natriuretic Peptide Receptors (NPRs); expressed in transfected cells; host or cells: Jump-in T-Rex HEK293 cells, pJTI R4 CMV-TO MCS pA vector, tetracycline induction
# T1 sequence (P18910 29-1057): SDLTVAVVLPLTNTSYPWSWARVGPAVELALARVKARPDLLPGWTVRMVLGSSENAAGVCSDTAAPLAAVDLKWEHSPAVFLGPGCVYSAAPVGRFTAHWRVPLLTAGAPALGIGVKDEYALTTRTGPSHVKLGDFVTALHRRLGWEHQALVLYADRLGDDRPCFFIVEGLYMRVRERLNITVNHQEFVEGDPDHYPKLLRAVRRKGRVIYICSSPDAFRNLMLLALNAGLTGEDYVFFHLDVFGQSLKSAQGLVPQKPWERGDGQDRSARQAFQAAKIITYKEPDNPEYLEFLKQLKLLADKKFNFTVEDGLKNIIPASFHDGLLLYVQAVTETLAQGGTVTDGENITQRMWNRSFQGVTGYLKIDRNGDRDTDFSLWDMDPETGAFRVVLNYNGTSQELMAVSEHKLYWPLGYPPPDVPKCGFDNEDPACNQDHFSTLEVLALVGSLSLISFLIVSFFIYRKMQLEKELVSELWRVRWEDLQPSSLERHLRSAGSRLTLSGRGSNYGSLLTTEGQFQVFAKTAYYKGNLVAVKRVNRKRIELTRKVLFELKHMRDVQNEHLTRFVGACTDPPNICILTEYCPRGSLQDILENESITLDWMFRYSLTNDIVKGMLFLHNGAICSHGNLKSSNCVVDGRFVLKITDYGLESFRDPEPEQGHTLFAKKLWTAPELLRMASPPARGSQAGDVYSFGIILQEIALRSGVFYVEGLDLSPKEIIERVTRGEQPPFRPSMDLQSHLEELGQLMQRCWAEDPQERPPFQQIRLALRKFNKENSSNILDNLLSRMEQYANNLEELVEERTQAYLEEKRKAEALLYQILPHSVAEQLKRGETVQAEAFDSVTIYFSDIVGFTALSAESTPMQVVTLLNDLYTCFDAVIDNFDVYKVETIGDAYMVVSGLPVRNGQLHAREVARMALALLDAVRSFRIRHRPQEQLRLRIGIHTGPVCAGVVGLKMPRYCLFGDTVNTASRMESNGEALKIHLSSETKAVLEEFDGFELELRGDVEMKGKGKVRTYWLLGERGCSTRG
# Assay: Rat NPRA cGMP activity assay (HTRF) in HEK293 cells overexpressing NPRA
# Type: cell-based
# Experimental: All sequences were verified by full-length sequencing performed by ACGT DNA Sequencing Services (Wheeling, IL). The target cDNA was cloned into pJTI R4 CMV-TO MCS pA vector and then co-transfected with pJT1R4 Int vector into Jump-in™ T-Rex™ HEK293 cells for mammalian inducible expression using Jump-in™ T-Rex™ HEK293 kit and Lipofectamine LTX and Plus Reagent following manufacturer's protocols, as briefly described below.
# Jump-in™ T-Rex™ HEK293 cells were plated in a BioCOAT® poly-D-lysine coated 6-well plate (Becton Dickinson, cat no. 354413) at 1 million cells/well in 2 mL culture medium and incubated for 18 h at 37° C. and 5% CO2 to 50-70% confluence. A cDNA mix was made in a 50 mL tube by adding 1.5 μg target cDNA, 1.5 μg pJT1R4 Int vector, 3 μL Plus Reagent, and 300 μL Opti-MEM I sequentially into the tube. A reagent mix was made in a separate 50 mL tube by adding 7.5 μL Lipofectamine LTX into 300 μL Opti-MEM I. The mixtures were incubated for 5 min at room temperature. The cDNA mix was then transferred into the reagent mix, mixed well, and incubated for additional 30 min at room temperature. A 500 μL of cDNA/Lipofectamine complex was then transferred to the wells of the cell plate in which the culture medium was changed to 2 mL of transfection medium containing DMEM with 4.5 g/L D-glucose supplemented with 10% FBS-HI and 20 mM HEPES. Transfected cells were cultured for 48 h in an incubator at 37° C. and 5% CO2. A subclone or pool from each overexpressing cell line was maintained in culture medium with the addition of 2 mg/mL G418 sulfate for the clone selection based on its built-in resistance to G418 sulfate for at least 3 weeks with medium changed every 2-3 days.
# NPRs were overexpressed in T-Rex™ HEK293 cells following the induction with 300 ng/mL tetracycline in culture medium for 48 h. Induced cell lines in an exponential growth phase were treated with 0.05% trypsin-EDTA for a few seconds at room temperature, harvested in cell medium containing FBS to neutralize the trypsin, counted, and cryopreserved at the density of 2 million cells/mL in cell preservation solution containing FBS-HI with 5% DMSO. Cryopreserved cells were stored at −80° C. for a few days prior to transferring to a liquid nitrogen tank. Induced cell lines were then used for suspension assays to measure the activity of polypeptides to stimulate cGMP production in cGMP assays or for the preparation of cell membranes to measure the binding activity of polypeptides in competitive radioligand binding assays, as described below.
# Test polypeptides were added starting at 10 μM concentration and at 10-fold decreasing concentrations to obtain 8-point concentration-response curves (i.e., 10 μM to 1 pM). The quantity of cGMP generated was detected using HTRF® technology and normalized to maximum amount produced by 100 nM amidated rat ANP and the minimum amount produced by assay buffer. Detailed steps are outlined below.
# Stock solutions of test polypeptides (2 mM) dissolved in DMSO were first diluted 100-fold in assay buffer containing HBSS with Ca^2+ and Mg^2+, 5 mM HEPES, 0.5 mM IBMX, and 0.1% BSA or 0.1% casein (pH 7.4). The polypeptides were further serially diluted in 1:10 dilution steps in assay buffer containing 0.1% BSA or 0.1% casein to generate 8-point 2× working stock solutions ranging from 20 μM to […].
# A 10 μL cell suspension containing 4000 cells was plated in Costar® half-area white opaque 96-well plates (Corning, cat no. 3693). Then 10 μL of assay buffer (basal activity), 200 nM of amidated rat ANP (maximum activity) or 2× working stock solutions of test polypeptides were transferred into the plate. Final concentration of DMSO in each well was 0.5%. The plate was shaken for 15 sec and then incubated for 40 min at room temperature.
# The cGMP generated was measured using cGMP kit following the manufacturer's directions, as described below.
# [1] = cGMP Assay (EC50, pM) w/BSA rNPRA, assay buffer with 0.1% BSA
# [2] = cGMP Assay (EC50, pM) w/Casein rNPRA, assay buffer with 0.1% casein
Molecule,EC50 [1],EC50 [2],"EC50 (assay buffer with 0.1% BSA, read-out: cGMP Assay (EC50, pM) w/BSA rNPRA)","EC50 (assay buffer with 0.1% casein, read-out: cGMP Assay (EC50, pM) w/Casein rNPRA)"
CC[C@H](C)[C@@H]1NC(=O)[C@H](CCCNC(=N)N)NC(=O)[C@H](CC(=O)O)NC(=O)[C@H]([C@@H](C)CC)NC(=O)[C@H](CCCNC(=N)N)NC(=O)[C@H](CCCCN)NC(=O)CNC(=O)[C@H](Cc2ccccc2)NC(=O)[C@@H](NC(=O)[C@H](CO)NC(=O)[C@H](CO)NC(=O)[C@H](CCCNC(=N)N)NC(=O)[C@H](CCCNC(=N)N)NC(=O)[C@H](Cc2ccncc2)NC(=O)[C@H](CO)NC(=O)COCCOCCNC(=O)COCCOCCNC(=O)COCCOCCNC(=O)COCCOCCNC(=O)COCCOCCNC(=O)COCCOCCNC(=O)CNC(=O)[C@H](CCCCN)NC(=O)[C@H](CCC(=O)O)NC(=O)[C@H](CCCCN)NC(=O)[C@H](CCC(=O)O)NC(=O)[C@H](CCCCN)NC(=O)[C@H](CCC(=O)O)NC(=O)CC[C@H](NC(=O)CCCCCCCCCCCCCCCCCCC(=O)O)C(=O)O)CSCSC[C@@H](C(=O)N2CCC[C@H]2C(=O)N[C@@H](CO)C(=O)N[C@@H](Cc2ccccc2)C(=O)N[C@@H](CCCNC(=N)N)C(=O)N[C@@H](Cc2c[nH]cn2)C(=O)NCC(=O)N[C@@H](CO)C(=O)NCC(=O)N[C@@H](CO)C(=O)N2CCC[C@H]2C(=O)N[C@@H](CO)C(=O)N[C@@H](CO)C(=O)NCC(=O)N[C@@H](C)C(=O)N2CCC[C@H]2C(=O)N2CCC[C@H]2C(=O)N2CCC[C@H]2C(=O)N[C@@H](CO)C(=O)NCC(N)=O)NC(=O)CNC(=O)[C@H](CC(C)C)NC(=O)CNC(=O)[C@H](CO)NC(=O)[C@H](Cc2ccc(O)cc2)NC(=O)[C@H](Cc2c[nH]cn2)NC(=O)CNC1=O [Example 117],200000 pM,–,–,–
{C20 diacid-γGlu}-EKEKEKGEKPRSSCFGKRIDRIGHQSGLGCPSFRHGSGSPSSGAPPPSG-NH2 (linker 14-30 via CH2) [Example 131],–,2160 pM,–,–
CC[C@H](C)[C@@H]1NC(=O)[C@H](CCCNC(=N)N)NC(=O)[C@H](CC(=O)O)NC(=O)[C@H]([C@@H](C)CC)NC(=O)[C@H](CCCNC(=N)N)NC(=O)[C@H](CCCCN)NC(=O)CNC(=O)[C@H](Cc2ccccc2)NC(=O)[C@@H](NC(=O)[C@H](CO)NC(=O)[C@H](CO)NC(=O)[C@H](CCCNC(=N)N)NC(=O)[C@H](CCCNC(=N)N)NC(=O)[C@H](Cc2ccncc2)NC(=O)[C@H](CO)NC(=O)CCOCCOCCOCCOCCOCCOCCOCCOCCOCCOCCOCCOCCOCCOCCOCCOCCOCCOCCOCCOCCOCCOCCOCCOCCNC(=O)CNC(=O)[C@H](CCCCN)NC(=O)[C@H](CCC(=O)O)NC(=O)[C@H](CCCCN)NC(=O)[C@H](CCC(=O)O)NC(=O)[C@H](CCCCN)NC(=O)[C@H](CCC(=O)O)NC(=O)CC[C@H](NC(=O)CCCCCCCCCCCCCCCCCCC(=O)O)C(=O)O)CSCSC[C@@H](C(=O)N2CCC[C@H]2C(=O)N[C@@H](CO)C(=O)N[C@@H](Cc2ccccc2)C(=O)N[C@@H](CCCNC(=N)N)C(=O)N[C@@H](Cc2c[nH]cn2)C(=O)NCC(=O)NCC(=O)N[C@@H](CCCCN)C(=O)N[C@@H](CO)C(=O)N[C@@H](CO)C(=O)NCC(=O)N[C@@H](C)C(=O)N2CCC[C@H]2C(=O)N2CCC[C@H]2C(=O)N2CCC[C@H]2C(=O)N[C@@H](CO)C(N)=O)NC(=O)CNC(=O)[C@H](CC(C)C)NC(=O)CNC(=O)[C@H](CO)NC(=O)[C@H](CCC(N)=O)NC(=O)[C@H](Cc2c[nH]cn2)NC(=O)CNC1=O [Example 109],–,–,276000 pM,16800 pM
CC[C@H](C)[C@@H]1NC(=O)[C@H](CCCNC(=N)N)NC(=O)[C@H](CC(=O)O)NC(=O)[C@H]([C@@H](C)CC)NC(=O)[C@H](CCCNC(=N)N)NC(=O)[C@H](CCCCN)NC(=O)CNC(=O)[C@H](Cc2ccccc2)NC(=O)[C@@H](NC(=O)[C@H](CO)NC(=O)[C@H](CO)NC(=O)[C@H](CCCNC(=N)N)NC(=O)[C@H](CCCNC(=N)N)NC(=O)[C@H](Cc2ccncc2)NC(=O)[C@H](CO)NC(=O)COCCOCCNC(=O)COCCOCCNC(=O)COCCOCCNC(=O)COCCOCCNC(=O)COCCOCCNC(=O)COCCOCCNC(=O)COCCOCCNC(=O)COCCOCCNC(=O)CNC(=O)[C@H](CCCCN)NC(=O)[C@H](CCC(=O)O)NC(=O)[C@H](CCCCN)NC(=O)[C@H](CCC(=O)O)NC(=O)[C@H](CCCCN)NC(=O)[C@H](CCC(=O)O)NC(=O)CC[C@H](NC(=O)CCCCCCCCCCCCCCCCCCC(=O)O)C(=O)O)CSCSC[C@@H](C(=O)N2CCC[C@H]2C(=O)N[C@@H](CO)C(=O)N[C@@H](Cc2ccccc2)C(=O)N[C@@H](CCCNC(=N)N)C(=O)N[C@@H](Cc2c[nH]cn2)C(=O)NCC(=O)N[C@@H](CO)C(=O)N2CCC[C@H]2C(=O)N[C@@H](CO)C(=O)N[C@@H](CO)C(=O)NCC(=O)N[C@@H](C)C(=O)N2CCC[C@H]2C(=O)N2CCC[C@H]2C(=O)N2CCC[C@H]2C(=O)N[C@@H](CO)C(N)=O)NC(=O)CNC(=O)[C@H](CC(C)C)NC(=O)CNC(=O)[C@H](CO)NC(=O)[C@H](Cc2ccc(O)cc2)NC(=O)[C@H](Cc2c[nH]cn2)NC(=O)CNC1=O [Example 107],149000 pM,3770 pM,–,–
